Results on 97 compounds are retold here after ChEMBL document CHEMBL3507680, “University of Dundee, Gates Library screen for HepG2 cell viability”.

The data set is described as follows: Human HepG2 cell viability assay in 384 well format. It counts as toxicity, cell-based. Set-up: dose 125 nL, time 70.5 hour; cytotoxicity at 70.5 h: concentration not given beside the values. To be noted: HepG2 cells, read-out: Inhibition.
As for `Cn1cc(-c2cnc3n2CCC32CCN(S(=O)(=O)C3CC3)CC2)cn1`, the cytotoxicity at 70.5 h was -9.03%.
For `O=C(Cc1cccs1)N1CCc2nnc(COc3cncnc3)n2CC1` the value was 14.8%; for `CCc1nc(C)c(-c2nccn2CC2CC(=O)N(CC)C2)[nH]1` (configuration not stated), 1.63%; for `CC(C)n1cc(CN2CCCN(C(=O)c3cccn3C)CC2)cn1`, -2.47%.
As for `COc1cc(OC)cc(N2CCC(NCc3ccsc3)C2=O)c1` (configuration not stated), the figure is 33.1%; as for `CCN1CC(C(=O)N2CCc3cc(C(=O)N(C)C)n(C)c3C2)CCC1=O` (configuration not stated), -6.7%; as for `CS(=O)(=O)NC[C@@H]1OC[C@H]2CN(Cc3ccccc3)CC[C@H]21`, -1.13%.
For `CN(CC(F)(F)F)C(=O)C1CSCN1C(=O)OC(C)(C)C` (configuration not stated) the value was 4.04%.
Take `Oc1cc(CCC2CCCCN2)cc(-c2ccncc2)c1` (configuration not stated): the cytotoxicity at 70.5 h stood at 17.4%.
As for `CC(C)(C)CC(=O)NCC1CCCS1` (configuration not stated), the figure is -8.2%.
As for `O=C(Nc1cccnc1)C1=NN(c2ccccc2)C(=O)CN1`, the figure is 6.02%; as for `COCc1nccc(C2CCCN(Cc3cccc(F)c3)C2)n1` (configuration not stated), 0.742%.
As for `Cc1oc(C)c(C(=O)NCc2cccnc2N(C)C)c1C`, the figure is -12.5%; as for `Cc1nc(-c2c(C)noc2C)cc(C2CCN(S(=O)(=O)N(C)C)CC2)n1`, -8.98%.
In the case of `OC(CN1CCN(Cc2cccnc2)CC1)c1cccs1` (configuration not stated), the cytotoxicity at 70.5 h is -3.13%.
As for `CN(C)CCN1CCCC12CCN(C(=O)c1cccnc1)CC2`, the figure is -3.11%; as for `CCCS(=O)(=O)N1CC[C@H]2O[C@@H](c3nc(C)no3)CC[C@H]21`, -21.7%.
For `Cc1noc([C@@]23CCO[C@@H]2CCN(C(=O)c2c(C)noc2C)C3)n1` the value was -1.33%; for `CCCS(=O)(=O)NC(=O)c1sc(C2CCCC2)nc1C`, -3.78%; for `CCn1cc(C(=O)NCc2cccnc2N(C)Cc2ccccc2)cn1`, 2.58%.
In the case of `CCCN(CC)Cc1ccc(C(=O)NCC2COCCO2)c(=O)[nH]1` (configuration not stated), the cytotoxicity at 70.5 h is -6.16%.
As for `Cc1ccc(N2CCCC(N(C)Cc3ccccn3)C2)nn1` (configuration not stated), the figure is -10.3%.
As for `CCc1cccc2cc(CN)c(=O)[nH]c12`, the figure is -10%; as for `CCN1C(=O)[C@H]2CN(Cc3cccnc3)C[C@H]2C12CCN(C(C)=O)CC2`, -10.7%.
As for `CN(Cc1ncc(-c2ccccc2C(=O)O)s1)c1ncccn1`, the figure is 31.6%; as for `O=C(Nc1cnccn1)[C@H]1CC[C@@H]2[C@@H](CCN2Cc2ccccn2)O1`, -0.71%.
For the compound `CNS(=O)(=O)c1cc(C(=O)NC2COc3ccccc3C2)ccc1OC` (configuration not stated), the cytotoxicity at 70.5 h was found to be 6.83%.
On to `CCN(C)c1ncnc2c1CCN(C(=O)c1ccccn1)CC2`, for which the cytotoxicity at 70.5 h was determined as 17.4%.
With `CC(C)c1cc(NC(=O)CNC2CCc3nc(C(C)C)nn3C2)on1` (configuration not stated), the cytotoxicity at 70.5 h is 4.46%.
For `CCOC(=O)N1CCN(CC(=O)Nc2ccc(F)cc2Cl)CC1` the value was -8.51%; for `O=S1(=O)NCC2(CCN(Cc3ccc(Cl)s3)C2)Oc2ncccc21` (configuration not stated), 17.2%.
As for `Cn1ccc2cc(C(=O)Nc3nc[nH]n3)ccc21`, the figure is 15.8%; as for `Cc1cc(C(=O)N2CC[C@H]3[C@@H]2CCC(=O)N3c2ccccc2)no1`, -8.05%.
As for `Cc1ccccc1CN(Cc1ccccn1)C(=O)CNS(C)(=O)=O`, the figure is 25.2%.
For the compound `Cc1cc(=O)[nH]c(SCC(=O)N(C)CC2Cc3ccccc3CN2C)n1` (configuration not stated), the cytotoxicity at 70.5 h was -6.08%.
As for `Cc1ccc(C(=O)N2CCN(S(C)(=O)=O)CC2)cc1N1CCNC1=O`, the figure is -1.5%; as for `CCc1nnc2n1CCN(C(=O)c1ccc3c(c1)NC(=O)CO3)C2`, -1.73%.
For `CN(C)CCN1CCN(C)c2nc(-c3ccccc3)ncc2C1=O` the value was -9.02%.
With `CC(=O)NC1CCN(c2ccc(C#N)cc2C(F)(F)F)CC1`, the cytotoxicity at 70.5 h is -1.95%.
For `Cc1nc(CN2CCN(c3cc(CCN)ncn3)CC2)cs1` the value was -2.73%.
Take `Fc1ccc(CN2C[C@@H]3OCCN(CC4CCCO4)[C@@H]3C2)cc1` (some centres not stated): the cytotoxicity at 70.5 h is 11%.
For `Cc1nn(C)c(C)c1CC(C)NC(=O)NCc1ccn(C(C)C)n1` (configuration not stated) the value was -5.76%.
As for `CC(C)(C)OC(=O)CNC(=O)CCc1nnc(-c2ccsc2)o1`, the figure is 0.905%; as for `CN(C)C1CCCN(C(=O)NCCNC(=O)C2CCCCC2)C1` (configuration not stated), 3.73%.
For `O=C(C1CCN(c2snc3ccccc23)CC1)N1CCCCCC1` the value was 28.1%; for `COc1c(CNC2CCCN(c3ncccn3)C2)c(C(C)C)nn1C` (configuration not stated), 18.4%; for `CC(C)c1nc(CN(C)C2CCCN(c3cccnn3)C2)no1` (configuration not stated), -5.62%.
On to `CN(C)C(=O)c1ccc2c(c1)N(C)C(CC(=O)NCc1ncc[nH]1)CO2` (configuration not stated), for which the cytotoxicity at 70.5 h was -5.15%.
On to `O=C1CC2(CCSC2)C(=O)N1Cc1coc(-c2ccc(F)cc2)n1` (configuration not stated), for which the cytotoxicity at 70.5 h is -3.42%.
For `COc1nn(C)c2c1CCCN(C(=O)c1cccc3cccnc13)C2`, the cytotoxicity at 70.5 h was -4.18%.
As for `CC(C)Cc1noc(CN(C)C2CCCC2)n1`, the figure is 28.6%; as for `c1csc(CN2CC[C@H]3O[C@@H](COCC4CC4)CC[C@H]32)c1`, 27%.
As for `CN(C)c1nc(N2CCCC2)nc2c1CCN(Cc1nccn1C)CC2`, the figure is 8.52%; as for `Cc1cc(C(=O)N2CCCCC2C)ccc1NCC(=O)N1CCOCC1` (configuration not stated), 26.9%.
Turning to `Cc1cc(CNC2CCc3nc(C(C)C)nn3C2)on1` (configuration not stated), the cytotoxicity at 70.5 h is -5.91%.
For `COc1c(NC(=O)N(C)CCOc2ccccc2)c(C)nn1C` the value was 15.1%; for `NC(=O)NC(=O)CCn1ccc(-c2ccccc2)n1`, 16%.
For `CC(C)CNC(=O)c1ccc(NC(=O)NC(C)(C)CO)cc1Cl` the value was -2.58%; for `COc1ccc(C(=O)O)cc1-c1cccc(C(C)N(C)C)c1` (configuration not stated), 0.229%; for `Cc1nc(CN2CCCC(NCCCOc3ccc(F)cc3)C2)no1` (configuration not stated), -8.43%.
As for `CN(CC(=O)NC(C)(C)C)Cc1cccc2c1OCCO2`, the cytotoxicity at 70.5 h stood at 33.4%.
As for `O=C(CCn1ccc2ccc(Br)cc21)/N=c1\[nH]nc(C2CCCO2)s1` (configuration not stated), the figure is -14.5%; as for `Cc1nc(CN2CCCC(Cn3cncn3)C2)no1` (configuration not stated), 15.8%; as for `COc1cc(CNCC(O)c2ccccc2)cc2c1OCO2` (configuration not stated), 3.15%.
For `O=C1NC(c2ccccc2)=N[C@@]12CC[C@@H]1CN(Cc3ccncc3)C[C@@H]12` the value was -13.9%; for `Cc1ccc(CNCc2nnc3n2CC(C(F)(F)F)CC3)o1` (configuration not stated), 2.88%; for `CCc1ncc(C(=O)N2CCC(O)(CN3CCOCC3)C(C)(C)C2)cn1` (configuration not stated), -0.715%.
As for `Cn1cc(CCC(=O)N2CCCC(n3cncn3)C2)cn1` (configuration not stated), the figure is -0.386%; as for `CNC(=O)c1cn[nH]c1C1CCN(Cc2ccccc2F)C1` (configuration not stated), -3.84%.
On to `COCCN1C[C@@H]2CN(Cc3ccoc3)CCC[C@]2(C(=O)O)C1`, for which the cytotoxicity at 70.5 h is -1.11%.
As for `Cc1nsc(NC(=O)N2CCCCC2CCO)n1` (configuration not stated), the figure is -6.53%.
As for `Cc1nc(-c2ccncc2)ncc1C(C)NC(=O)CN1CCCC1=O` (configuration not stated), the figure is -5.92%; as for `COc1ccccc1-c1cc(NC(=O)CC2CCS(=O)(=O)C2)[nH]n1` (configuration not stated), -9.57%.
As for `N#Cc1ccccc1N1CCN(C(=O)NCC(=O)N2CCCC2)CC1`, the figure is -0.138%.
With `O=C(c1n[nH]c2c1CCN(Cc1nccs1)C2)N1CCOCC1`, the cytotoxicity at 70.5 h stood at 4.7%.
As for `CCSCC(C)NCc1nn(C)c2ccc(C)cc12` (configuration not stated), the figure is -5.67%; as for `O=C(c1ccc[nH]1)N1C[C@H]2CC[C@@H]1CN(c1ncccn1)C2`, -8.11%.
For `CCC(O)CN1CCN(C(=O)c2cc(Cl)cc3cccnc23)CC1` (configuration not stated) the value was 18.2%; for `O=C1CCCCCN1Cc1ncnn1Cc1c(F)cccc1Cl`, -5.62%; for `CN1CCCCC[C@@H]2[C@@H]1[C@H](c1ccccc1)CN2C(=O)c1ccccn1`, -1.6%.
As for `CC(=O)NCCCC(=O)N1CCc2[nH]c(-c3ccccc3)nc2C1`, the figure is -5.92%; as for `CC(=O)N1CCN(C[C@H]2CC[C@@H](Cc3ccc4c(c3)OCO4)O2)CC1`, -1.65%.
On to `CC1N(c2cnn(C)c2)C(=O)COC12CCN(Cc1ccco1)CC2` (configuration not stated), for which the cytotoxicity at 70.5 h was -3.36%.
As for `Cc1nc(C)n(CC2CCCN2Cc2cc(C)on2)n1` (configuration not stated), the figure is -1.6%; as for `CCOc1cccc(CCNC(=O)Cc2ccn[nH]2)n1`, -7.14%; as for `CN(CC(C)(C)C)S(=O)(=O)c1ccc(C(F)(F)F)nc1`, -25.1%.
For `COc1ccc(C2CCCN2C(=O)NCCn2ccnc2)cc1` (configuration not stated) the value was 1.98%; for `CNc1cc(CNC(=O)c2ccccn2)nc(-c2ccncc2)n1`, 11.9%; for `CNC(=O)Cn1c(CO)cnc1SCc1ccccc1Cl`, 16.9%.
With `CCn1cnnc1CNC(=O)NC(C)c1cccs1` (configuration not stated), the cytotoxicity at 70.5 h is -14.5%.
For `CC(C)NC(=O)N1Cc2nccn2CC(COc2cccnc2)C1` (configuration not stated) the value was 9.72%; for `O=C(Cc1ccccc1)NCc1ncc(-c2ccccc2C(=O)O)cn1`, -4.73%.
Take `CC(c1nc(C2CC2)no1)N1CCN(c2ccc(C#N)cn2)CC1` (configuration not stated): the cytotoxicity at 70.5 h is -10.6%.
As for `CC(=O)N1CCCN(C(=O)Cc2ccc3c(c2)OCO3)CC1`, the figure is -14.3%; as for `FC(F)(F)CN1CCC(CNc2nc3ccccc3o2)C1` (configuration not stated), 1.85%.
Regarding `CCCc1nc(CNc2cccc(C(=O)N3CCCC(O)C3)c2)no1` (configuration not stated), the cytotoxicity at 70.5 h is -4.84%.
On to `Cc1noc([C@@H]2CC[C@@H]3[C@@H](CCN3S(=O)(=O)c3ccccc3)O2)n1`, for which the cytotoxicity at 70.5 h is -14.9%.
